According to patent US4797479A, “Nucleoside-phospholipid conjugate” (Toyo Jozo Kabushiki Kaisha, priority 1985, dated 1989):

Assays:
[1] = tested on: Ehrlich ascites carcinoma cells; assay: Antitumor activity against Ehrlich ascites carcinoma (increase in life span, survivors); type: in vivo, mouse (ICR mice); details: for 35 days survivals No./treated / ILS (increase in life span): Ehrlich; for ILS (increase in life span): Table 1, 35 days, control 15.14-15.43 days
Protocol: Antitumor activities against mouse leukemia P-388 carcinoma and Ehrlich ascites carcinoma are shown in the ensuing examples, according to the following list of specifications:
2. Animals: BDF1 mice or ICR mice, aged 5-6 weeks, male, 5 mice in a group and 7 control mice.
3. Tumor cells: P-388 leukemic cells; 1×10^6 /0.2 ml are inoculated intraperitoneally in BDF1 mice. Ehrlich ascites carcinoma cells; 2×10^6 /0.2 ml are inoculated intraperitoneally in ICR mice.
4. Preparation of samples and administration of drugs: Samples are suspended in Tris-HCl saline solution by sonication. 0.1 ml/10 g body weight is administered. Samples are stored at 4° C. in the dark.
Administration: starting two days after inoculation of tumor, once a day for 2-7 days.
5. Increase in life span (ILS) is calculated by the following equation: [formula] Experimental days: 35 days (partially 30 days) mice living in final days are not calculated in ILS.
Antitumor activity of this compound has been shown hereinbefore. Furthermore, over 60% ILS was observed when Ehrlich ascites carcinoma, 2×10^6 cells/0.2 ml was inoculated intraperitoneally in mice and 2 days thereafter this compound (30 mg/kg) was administered once a day for 7 days.

P-388 leukemic cells = assay: Antitumor activity against mouse P-388 leukemia (increase in life span, survivors); type: in vivo, mouse (BDF1 mice); details: for 35 days survivals No./treated / ILS (increase in life span): P-388; for ILS (increase in life span): Table 1, 35 days, control 7.57-7.79 days; for ILS at 15 mg/kg / ILS at 30 mg/kg: P388
mice = assay: Acute toxicity / mortality in mice; type: in vivo; details: for mortality: 150 mg/kg body weight in mice
[2] = Antiviral activity (statement, no method given); details: statement in words; virus and dose not stated
[3] = Mus musculus, Table 5, P-388 leukemia treatment, 30 mg (× 5) under head mg/kg

Q: What does the source list for `CCCCCCCCCCCCCCCC(=O)OC[C@H](COP(=O)(O)OC[C@H]1O[C@@H](n2cc(F)c(=O)[nH]c2=O)[C@H](O)[C@@H]1O)OC(=O)CCCCCCCCCCCCCCC` [Example 1]?
A: 35 days survivals No./treated ([1]; 15 mg/kg (× 5)): 2/5; ILS (increase in life span) ([1]; 15 mg/kg (× 5)): > 88.0%; 35 days survivals No./treated (P-388 leukemic cells; 30 mg/kg (× 5)): 0/5; ILS (increase in life span) (P-388 leukemic cells; 30 mg/kg (× 5)): 206.3%; acute toxicity (mice; 150 mg/kg i.p. in mice): No acute toxicity was observed

Q: For `CCCCCCCCCCCCCCCC(=O)OC[C@H](COP(=O)(O)OCC1=C[C@@H](n2cnc3c(N)ncnc32)[C@H](O)[C@@H]1O)OC(=O)CCCCCCCCCCCCCCC` [Example 2], which “35 days survivals No./treated” value ([1]; 10 mg/kg (× 7)) is on record?
A: 2/5

Q: And the “ILS (increase in life span)” value ([1]; 10 mg/kg (× 7))?
A: > 68.7%

Q: What about the “35 days survivals No./treated” value (P-388 leukemic cells; 50 mg/kg (× 3)) of the same compound?
A: 1/5

Q: What about the “ILS (increase in life span)” value (P-388 leukemic cells; 50 mg/kg (× 3)) of the same compound?
A: > 159.3%

Q: What about the acute toxicity (mice; 250 mg/kg body weight) of the same compound?
A: No acute toxicity was observed

Q: For `CCCCC/C=C\C/C=C\CCCCCCCC(=O)OC[C@H](COP(=O)(O)OC[C@H]1O[C@@H](n2cc(F)c(=O)[nH]c2=O)[C@H](O)[C@@H]1O)OC(=O)CCCCCCC/C=C\C/C=C\CCCCC` [Example 3], which ILS at 15 mg/kg (P-388 leukemic cells; mouse P-388 leukemia, 15 kg/mg, 5 times administration) is on record?
A: 101%

Q: And the “35 days survivals No./treated” value (P-388 leukemic cells; 15 mg/kg (× 5))?
A: 0/5

Q: What about the “ILS (increase in life span)” value (P-388 leukemic cells; 15 mg/kg (× 5)) of the same compound?
A: 100.8%

Q: What about the acute toxicity (mice; 75 mg/kg, mice) of the same compound?
A: no acute toxicity

Q: For `CCCCCCCCCCCCCCCC(=O)OC[C@H](COP(=O)(O)OC[C@H]1O[C@@H](n2cc(F)c(N)nc2=O)[C@@H](O)[C@@H]1O)OC(=O)CCCCCCCCCCCCCCC` [Example 13], which ILS ([1]; Ehrlich ascites carcinoma 2×10^6 cells i.p., 30 mg/kg once a day for 7 days from 2 days after inoculation) is on record?
A: over 60%

Q: And the ILS at 15 mg/kg (P-388 leukemic cells; Mus musculus, Table 2, P-388 leukemia, 15 mg/kg (× 5), control 7.57-7.64 days)?
A: 152%

Q: What about the acute toxicity (mice; 150 mg/kg body weight, mice) of the same compound?
A: No acute toxicity

Q: Which ILS ([1]; mice Ehrlich ascites carcinoma, dose not stated) does the source give for `CCCCCCCC/C=C\CCCCCCCC(=O)OC[C@H](COP(=O)(O)OC[C@H]1O[C@@H](n2ccc(N)nc2=O)[C@@H](O)[C@@H]1O)OC(=O)CCCCCCC/C=C\CCCCCCCC` [Example 14] here?
A: 65.6%

Q: And the ILS at 30 mg/kg (P-388 leukemic cells; Mus musculus, Table 2, P-388 leukemia, 30 mg/kg (× 5), control 7.57-7.64 days)?
A: 154%

Q: What about the “acute toxicity or mortality” value (mice; 150 mg/kg body weight, mice) of the same compound?
A: No acute toxicity or mortality

Q: Which ILS at 30 mg/kg (P-388 leukemic cells; [3]) does the source give for `CCCCCCCCCCCCCCCCCC(=O)OC[C@H](COP(=O)(O)OC[C@H]1O[C@@H](n2cc(F)c(=O)[nH]c2=O)[C@H](O)[C@@H]1O)OC(=O)CCCCCCCCCCCCCCCCC` [Example 16] here?
A: 206%

Q: For `CCCCCCCCCCCCCCCCCC(=O)OC[C@H](COP(=O)(O)OCC1=C[C@@H](n2cnc3c(N)ncnc32)[C@H](O)[C@@H]1O)OC(=O)CCCCCCCCCCCCCCCCC` [Example 17], which ILS at 30 mg/kg (P-388 leukemic cells; [3]) is on record?
A: 128%

Q: With `CCCCCCCCCCCCCCCCCC(=O)OC[C@H](COP(=O)(O)OC[C@H]1O[C@@H](n2cc(F)c(N)nc2=O)[C@@H](O)[C@@H]1O)OC(=O)CCCCCCCCCCCCCCCCC` [Example 18] as the compound, how does the ILS at 30 mg/kg (P-388 leukemic cells; [3]) read?
A: 194%

Q: With `CCCCCCCCCCCCCCCCCC(=O)OC[C@H](COP(=O)(O)OC[C@H]1O[C@@H](n2ccc(N)nc2=O)[C@@H](O)[C@@H]1O)OC(=O)CCCCCCCCCCCCCCCCC` [Example 19] as the compound, how does the ILS at 30 mg/kg (P-388 leukemic cells; [3]) read?
A: 160%

Q: For `CCCCCCCCCCCCCCCCCC(=O)OC[C@H](COP(=O)(O)OC[C@H]1O[C@@H](n2cc(F)c(=O)[nH]c2=O)C[C@@H]1O)OC(=O)CCCCCCCCCCCCCCCCC` [Example 20], which ILS at 30 mg/kg (P-388 leukemic cells; [3]) is on record?
A: 36%

Q: For `CCCCCCCCCCCCCCCC(=O)OC[C@H](COP(=O)(O)OC[C@H]1O[C@@H](n2cnc3c(N)ncnc32)[C@@H](O)[C@@H]1O)OC(=O)CCCCCCCCCCCCCCC` [dipalmitoyl phosphatidyl arabinosyladenine], which antiviral activity [2] is on record?
A: have antiviral activity

Q: What about the mortality (mice) of the same compound?
A: no mortality was observed

Q: With `CCCCCCCCCCCCCCCC(=O)OC[C@H](COP(=O)(O)OC[C@H]1O[C@@H](n2cc(C)c(=O)[nH]c2=O)[C@@H](O)[C@@H]1O)OC(=O)CCCCCCCCCCCCCCC` [dipalmitoyl phosphatidyl arabinosylthymine] as the compound, how does the antiviral activity [2] read?
A: have antiviral activity

Q: What about the mortality (mice) of the same compound?
A: no mortality was observed
